Patent publication US10441681B2, “Materials and methods for nerve grafting” (University of Florida Research Foundation, Inc., priority 2001, dated 2019)

What was measured:
CSPG = CSPG neoepitope (Ab1918) immunolabeling of acellular rat sciatic nerve segments treated en bloc; conditions: acellular rat sciatic nerve segments bathed en bloc in chondroitinase ABC solution for 16 hours
Source text: Adult (180-200 g) female SPRAGUE DAWLEY rats (HARLAN, Indianapolis, Ind.) were used as nerve donors and recipient hosts. Donor rats were anesthetized with halothane and decapitated. Sciatic nerves were exposed through a gluteal muscle-splitting incision and isolated free of underlying fascia. A 15-mm nerve segment was excised rostral to the bifurcation into common peroneal and tibial nerves. The segments were rinsed with cold sterile Ringer's solution, stabilized by pinning the ends to a thin plastic support, and transferred to a cryogenic vial. The vials were submerged in liquid nitrogen for 2 minutes and then transferred to a 37° C. water bath for 2 minutes. This freeze/thaw cycle was repeated, yielding acellular nerve grafts that were then stored in liquid nitrogen. On the day before grafting, the nerve grafts were warmed to room temperature and incubated in 100 μl phosphate buffered saline pH 7.4 (PBS) containing 2 units/ml chondroitinase ABC (SIGMA, St. Louis, Mo.) or in PBS (vehicle) only for 16 hours at 37° C. The grafts were rinsed twice with Ringer's and kept on ice prior to use. The chondroitinase ABC preparation was highly purified and stated by the manufacturer to be essentially free of protease activity.
Axonal regeneration was assessed by GAP-43 immunofluorescence and digital image analysis. […]

chick DRG neurons = test: Cryoculture assay using human nerve segments; assay type: cell-based; conditions: 24 h
Procedure: Cryoculture is a neurite outgrowth assay in which neurons are cultured directly on fresh/frozen nerve sections and was performed as described previously (Ferguson T A et al. [2000] Mol Cell Neurosci, 16:157-167). Briefly, chondroitinase- and vehicle-treated nerve segments were sectioned at 20 μm, mounted on sterile, aminopropyltriethoxysilane (APTS)-coated coverslips and stored at −20° C. until used. Where indicated, sections were treated with chondroitinase ABC (0.1 unit/ml) or vehicle (50 mM Tris-HCl, pH 8.0), containing 50 mM NaCl) for 2 h at 37° C. Purified dorsal root ganglionic (DRG) neurons from day 8 chick embryos were seeded directly on the nerve sections in a defined N2 medium (Bottenstein J E et al. [1980] Exp Cell Res 125:183-190) containing 10 ng/ml nerve growth factor. Cryoculture assays were terminated after 24 h of incubation by fixation with 100% methanol. Neuritic growth by DRG neurons was accessed by GAP-43 immunofluorescent labeling. Epifluorescent photomicrographs were acquired as described for tissue sections. Neurite lengths were measured directly using IMAGE-PRO PLUS software (MEDIA CYBERNETICS, Silver Springs, Md.). At least 250 neurons with neurites greater than one cell body (˜15 μm) were scored for each condition in each experiment.
Many of the experiments described in the examples above performed using rat nerves also have been replicated using human nerve. […]

chondroitinase ABC
CSPG degradation (Ab1918 neoepitope immunostaining) (CSPG): thoroughly degraded CSPG side-chains | growth-promoting properties of human nerves (chick DRG neurons): increased
